Legend:
HEK293 cells = experiment: Autophagy flux (LC3-II western blot with and without bafilomycin A1); format: cell-based
Procedure: Autophagy Flux was assessed using western blot by comparing of the cumulative LC3-II levels in HEK293 cells with and without autophagy inhibitor—bafilomycin A1 (vacuolar H+ ATPase inhibitor, 0.1 μM). Bafilomycin A1 inhibits autophagosomes degradation by fusion with lysosome since it prevents the lysosome acidification. LC3-II is an autophagosomal membrane protein therefore it is used as autophagy marker. HEK293 cells were seeded in a 6-well plate 24 hours before treatment in DMEM growth media. The cells were incubated with or without bafilomycin A1 and 3-Methyladenine (3-MA) in EBSS for 2 hours (3-MA, 5 mM) in 37° C. and 5% CO2. 3-MA acts as an autophagy inhibitor since it inhibits III phosphatidylinositol 3-kinases (PI-3K) which produce the endogenous PI3P. At the second hour the cells were treated with Q-starch/PI3P complexes at N/P ratio of 2 and with PI3P alone as control (final PI3P concentration in each well was 0.5 μM).
Up-regulation of autophagy in HEK293 cells with the Q-starch/PI3P complexes was assessed by comparing the autophagy flux for the following conditions (FIG. 7): flux after 3 hours of serum starvation, flux after inhibition of the formation of endogenous PI3P by 3-MA (3-Methyladenine), flux after treatment with 3-MA and complexes at N/P ratio of 2 and flux after treatment with 3-MA and PI3P.

[1] = Zeta potential (Zetasizer, Smoluchowski model); format: physicochemical; conditions: in mV (unit assumed)
Procedure: The hydrodynamic size of the complexes was measured by dynamic light scattering (DLS). Spectra were collected by using CGS-3, (ALV, Langen, Germany). The laser power was 20 mW at the He—Ne laser line (632.8 nm). Correlograms were calculated by ALV/LSE 5003 correlator, which were collected at 90°, during 20 s for 10 times, at 25° C. The correlograms were fitted with version of the program CONTIN (provencher, 1982). Samples of complexes were each diluted to a final volume of 1 mL in DDW. Each sample was measured three times and solutions were further diluted until results were independent of dilution rate. Complexes' size is presented as average of triplicates. Samples from DLS were transferred to U-tube cuvette (DTS 1070, Malvern) for subsequent zeta potential measurements using Zetasizer (ZN-NanoSizer, Malvern, England). Each sample was measured at automatic mode, at 25° C. and the Smoluchowski model was used to calculate the zeta potential. For each sample the zeta potential value was presented as the average value of three runs, and the average value of each N/P ratio is presented as the average of triplicates.

[2] = Cryo-TEM imaging of complex size and geometry in solution; format: physicochemical; conditions: FIG. 3; complexes at N/P ratios of 2 to 3
Procedure: Complex size and geometry in solution were visualized using Cryo-TEM. TEM at cryogenic temperature (Cryo-TEM) is used for direct imaging of solutions and dispersions. Vitrified specimens are prepared on a copper grid coated with a perforated lacy carbon 300 mesh (Ted Pella Inc.). A typically 4 μl drop from the solution is applied to the grid and blotted with a filter paper to form a thin liquid film of solution. The blotted sample are immediately plunged into liquid ethane at its freezing point (−183° C.). The procedure is performed automatically in the Plunger (Lieca EM GP). The vitrified specimens are transferred into liquid nitrogen for storage. the samples are studied using a FEI Tecnai 12 G2 TEM, at 120 kV with a Gatan cryo-holder maintained at −180° C., and images are recorded on a slow scan cooled charge-coupled device CCD camera Gatan manufacturer. Images are recorded with the Digital Micrograph software package, at low dose conditions, to minimize electron beam radiation damage.

Cn1cnc(N)c2ncnc1-2 [3-MA, 3-Methyladenine]
autophagy flux (difference in LC3-II levels with and without bafilomycin A1) (HEK293 cells; 3-MA 5 mM alone, compared to serum starvation): decrease in the autophagy flux

CCCCCCCC(=O)OC[C@H](COP(=O)(O)O[C@@H]1[C@H](O)[C@H](OP(=O)(O)O)[C@@H](O)[C@H](O)[C@H]1O)OC(=O)CCCCCCC [PI3P, Phosphatidylinositol 3-phosphate diC8]
autophagy flux (difference in LC3-II levels with and without bafilomycin A1) (HEK293 cells; with 3-MA 5 mM in EBSS, final PI3P 0.5 μM, complexes at N/P=2): did not affect the levels of autophagy flux
average zeta potential ([1]; non-complexed alone (FIG. 4B): 0.5 μM PI3P, 0.45 mg/L Q-starch): −14.8±3.8

CCCCCCCCCCCCCCCC(=O)OC[C@H](COP(=O)(O)OC1[C@H](O)[C@H](OP(=O)(O)O)C(OP(=O)(O)O)[C@H](OP(=O)(O)O)[C@H]1O)OC(=O)CCCCCCCCCCCCCCC (some centres unmarked) [PIP3, phosphatidylinositol (3,4,5) trisphosphate diC16]
shape in cryo-TEM images [2]: shape of long filaments
average zeta potential ([1]; non-complexed component alone (FIG. 1)): −20.83

From patent US10350235B2, “Cationic polysaccharides for delivery of phosphoinositides to cells for therapeutic purpose” (priority 2015, dated 2019)
